Measurements: patent US12338206B2, “Compounds and their uses as thyroid hormone receptor agonists” (Nanjing Ruijie Pharma Co., Ltd., priority 2020, dated 2025)

How the values were obtained:
TRα LBD = TRα LBD (Homo sapiens, UniProt P10827); assay: In vitro thyroid hormone receptor binding assay (TR-FRET coactivator assay), TRα LBD; details: Biotin-SRC2-2, 1 hour at room temperature
Method: (§1) In Vitro Thyroid Hormone Receptor Binding Assay
(§2) The interaction between the compounds of present invention and Human Thyroid Receptor (TR) are evaluated by Time-Resolved Fluorescence Resonance Energy Transfer (TR-FRET) competition assay. FRET describes a radiation-free energy transfer between two chromophores: a donor fluorophore in its excited state can transfer energy to an acceptor fluorophore in close proximity (typically <10 nm). In contrast to standard FRET, TR-FRET unites time-resolved fluorescence (TRF) and the FRET principle. TRF use a long-lifetime lanthanide chelate as the donor species, while lanthanide chelates are unique in that their excited-state lifetime can be on the order of a millisecond or longer. Suitable neighbors for FRET are known in the art and can be obtained. The assay was adopted from the manual of LanthaScreen™ TR-FRET Thyroid Receptor beta Coactivator Assay kit from Invitrogen.
(§3) The assay is performed in following steps: first, prepare reaction buffer containing 50mMTris-HCl (pH7.4) with 100 mM NaCl, 1mMEDTA, 50mMKF, 1mMDTT, 1mMMgCl2, 10% glycerol, 0.01% NP-40, 0.1% BSA. Second, use the buffer to prepare the appropriate dilution series of the test and reference compounds. The3,3′,5-Triiodothyronine (T3) was used aspositive control agonist. Third, add 5 μl of 4× compoundserial dilution and 5 μl TRa LBD (4×, 4 nM) (or 5 μl TRβ LBD, 4×, 2 nM) into 384-well plate (784075, greiner). Then, add 10 μl of a solution consist of 400 nM Biotin-SRC2-2 (2×) and anti-GST Eu (1:200, 2×) and 50 nM anti-biotin-d2 (2×) in 1× reaction buffer to initiate the reaction. Centrifuge the plates at 1000 g for 1 min and then incubate 1 hour at room temperature protected from light. Finally, read the plate at wavelengths of 665 nm and 615nmonEnvision2104 plate reader.
(§4) A ratio (Ratio665 nm/615 nm−Ratiobackground) is calculated for each well. Percentage of activity, as well as EC50 was calculated. Effect-dose curve was plotted. Relative selectivity was calculated as the ratio of EC50TRα/EC50TRβ.

TRβ LBD = target: T1, TRβ LBD (Homo sapiens, UniProt P10828); assay: In vitro thyroid hormone receptor binding assay (TR-FRET coactivator assay), TRβ LBD; details: for EC50: TR-FRET, TRβ LBD, Biotin-SRC2-2, 1 hour at room temperature; for Relative Selectivity TR-α/TR-β: ratio of EC50 TRα/EC50 TRβ, TR-FRET assay
T1 construct: (or 5 μl TRβ LBD, 4×, 2 nM)
T1 sequence (P10828 217-461 limits assumed): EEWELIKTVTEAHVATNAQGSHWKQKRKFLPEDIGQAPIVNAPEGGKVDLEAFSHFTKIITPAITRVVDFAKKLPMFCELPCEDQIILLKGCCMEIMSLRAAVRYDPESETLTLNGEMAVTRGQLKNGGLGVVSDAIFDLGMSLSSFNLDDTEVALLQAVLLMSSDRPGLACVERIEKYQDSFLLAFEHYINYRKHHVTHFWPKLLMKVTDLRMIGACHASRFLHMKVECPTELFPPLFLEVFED
Method: as §1, §2, §3, §4

Chain of TRα LBD (P10827 163-410 isoform P10827-2 limits assumed, other chains not shown): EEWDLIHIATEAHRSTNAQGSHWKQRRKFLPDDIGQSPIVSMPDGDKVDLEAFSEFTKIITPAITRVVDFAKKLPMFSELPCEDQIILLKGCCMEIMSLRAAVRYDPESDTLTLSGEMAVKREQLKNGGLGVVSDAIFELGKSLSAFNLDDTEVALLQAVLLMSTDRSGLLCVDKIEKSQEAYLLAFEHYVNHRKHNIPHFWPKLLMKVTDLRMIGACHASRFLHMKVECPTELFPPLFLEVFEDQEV

EC50 (TRα LBD) [µM]	EC50 (TRβ LBD) [µM]	Relative Selectivity TR-α/TR-β (TRβ LBD)	Structure (SMILES)
0.00677	0.0173	0.3915	Cc1cc(OCC(=O)NS(C)(=O)=O)cc(C)c1Cc1ccc(O)c(C(C)C)c1 [Compound I1, 2-(4-(4-hydroxy-3-isopropylbenzyl)-3,5-dimethylphenoxy)-N-(methylsulfonyl)acetamide]
0.00737	0.0162	0.4560	Cc1cc(OCc2cc(O)no2)cc(C)c1Cc1ccc(O)c(C(C)C)c1 [Compound I2, 5-((4-(4-hydroxy-3-isopropylbenzyl)-3,5-dimethylphenoxy)methyl) isoxazol-3-ol]
> 10	> 10		CC(C)c1cc(Oc2ccc(-n3nc(C#N)c(=O)[nH]c3=O)cc2Cl)cnc1O [Compound I5, 2-(3-chloro-4-((5-isopropyl-6-oxo-1,6-dihydropyridin-3-yl)oxy)phenyl)-3,5-dioxo-2,3,4,5-tetrahydro-1,2,4-triazine-6-carbonitrile]
> 10	1.98	>5.05	Cc1cc(-n2nc(C#N)c(=O)[nH]c2=O)cc(C)c1Oc1cnc(O)c(C(C)C)c1 [Compound I6, 2-(4-((5-isopropyl-6-oxo-1,6-dihydropyridin-3-yl)oxy)-3,5-dimethylphenyl)-3,5-dioxo-2,3,4,5-tetrahydro-1,2,4-triazine-6-carbonitrile]
> 10	> 10		CC(C)c1cc(Oc2c(F)cc(-n3nc(C#N)c(=O)[nH]c3=O)cc2F)c[nH]c1=O [Compound I7, 2-(3,5-difluoro-4-((5-isopropyl-6-oxo-1,6-dihydropyridin-3-yl)oxy)phenyl)-3,5-dioxo-2,3,4,5-tetrahydro-1,2,4-triazine-6-carbonitrile]
> 10	2.89	>3.46	Cc1c[nH]c2ncc(Oc3c(Cl)cc(-n4nc(C#N)c(=O)[nH]c4=O)cc3Cl)cc12 [Compound I8, 2-(3,5-dichloro-4-((3-methyl-1H-pyrrolo[2,3-b]pyridin-5-yl)oxy)phenyl)-3,5-dioxo-2,3,4,5-tetrahydro-1,2,4-triazine-6-carbonitrile]
1.04	0.086	12.11	Cc1c[nH]c2ccc(Cc3c(Cl)cc(-n4nc(C#N)c(=O)[nH]c4=O)cc3Cl)cc12 [Compound I21, 2-(3,5-dichloro-4-((3-methyl-1H-indol-5-yl)methyl)phenyl)-3,5-dioxo-2,3,4,5-tetrahydro-1,2,4-triazine-6-carbonitrile]
> 100	0.273	366	CC(=O)OCn1cc(Oc2c(Cl)cc(-n3nc(C#N)c(=O)[nH]c3=O)cc2Cl)cc(C(C)C)c1=O [Compound I24, (5-(2,6-dichloro-4-(6-cyano-3,5-dioxo-4,5-dihydro-1,2,4-triazin-2 (3H)-yl)phenoxy)-3-isopropyl-2-oxopyridin-1 (2H)-yl)methyl acetate]
5.23	6.4	0.82	CC(C)c1cncn(Cc2c(Cl)cc(-n3nc(C#N)c(=O)[nH]c3=O)cc2Cl)c1=O [Compound I29, 2-(3,5-dichloro-4-((5-isopropyl-6-oxopyrimidin-1 (6H)-yl)methyl)phenyl)-3,5-dioxo-2,3,4,5-tetrahydro-1,2,4-triazine-6-carbonitrile]
> 100	> 10		CC(C)c1cn(Cc2c(Cl)cc(-n3nc(C#N)c(=O)[nH]c3=O)cc2Cl)cnc1=O [Compound I30, 2-(3,5-dichloro-4-((5-isopropyl-4-oxopyrimidin-1 (4H)-yl)methyl)phenyl)-3,5-dioxo-2,3,4,5-tetrahydro-1,2,4-triazine-6-carbonitrile]
> 100	> 10		CC(C)c1cn(Cc2c(Cl)cc(-n3nc(C#N)c(=O)[nH]c3=O)cc2Cl)c(=O)[nH]c1=O [Compound I31, 2-(3,5-dichloro-4-((5-isopropyl-2,4-dioxo-3,4-dihydropyrimidin-1(2H)-yl)methyl)phenyl)-3,5-dioxo-2,3,4,5-tetrahydro-1,2,4-triazine-6-carbonitrile]

Continued, molecule first:

Structure (SMILES)	EC50 (TRα LBD) [µM]	EC50 (TRβ LBD) [µM]	Relative Selectivity TR-α/TR-β (TRβ LBD)
N#Cc1nn(-c2cc(Cl)c(Oc3cnc4[nH]ccc4c3)c(Cl)c2)c(=O)[nH]c1=O [Compound I9, 2-(4-((1H-pyrrolo[2,3-b]pyridin-5-yl)oxy)-3,5-dichlorophenyl)-3,5-dioxo-2,3,4,5-tetrahydr o-1,2,4-triazine-6-carbonitrile]	> 10	> 10	
N#Cc1nn(-c2cc(Cl)c(Oc3cnc(O)c(C4CC4)c3)c(Cl)c2)c(=O)[nH]c1=O [Compound I11, 2-(3,5-dichloro-4-((5-cyclopropyl-6-oxo-1,6-dihydropyridin-3-yl)oxy)phenyl)-3,5-dioxo-2,3,4,5-tetrahydro-1,2,4-triazine-6-carbonitrile]	> 10	0.754	
N#Cc1nn(-c2cc(Cl)c(Oc3ccc4[nH]cnc4c3)c(Cl)c2)c(=O)[nH]c1=O [Compound I13, 2-(4-((1H-benzo[d]imidazol-5-yl)oxy)-3,5-dichlorophenyl)-3,5-dioxo-2,3,4,5-tetrahydro-1,2,4-triazine-6-carbonitrile]	12.2	2.61	4.67
Cn1c(=O)[nH]c2ccc(Oc3c(Cl)cc(-n4nc(C#N)c(=O)[nH]c4=O)cc3Cl)cc21 [Compound I14, 2-(3,5-dichloro-4-((3-methyl-2-oxo-2,3-dihydro-1H-benzo[d]imidazol-5-yl)oxy)phenyl)-3,5-dioxo-2,3,4,5-tetrahydro-1,2,4-triazine-6-carbonitrile]	0.172	0.046	3.70
N#Cc1nn(-c2cc(Cl)c(Oc3ccc4[nH]c(=O)[nH]c4c3)c(Cl)c2)c(=O)[nH]c1=O [Compound I15, 2-(3,5-dichloro-4-((2-oxo-2,3-dihydro-1H-benzo[d]imidazol-5-yl)oxy)phenyl)-3,5-dioxo-2,3,4,5-tetrahydro-1,2,4-triazine-6-carbonitrile]	1.79	0.854	2.09
N#Cc1nn(-c2cc(Cl)c(Oc3ccc4[nH]ccc4c3)c(Cl)c2)c(=O)[nH]c1=O [Compound I16, 2-(4-((1H-indol-5-yl)oxy)-3,5-dichlorophenyl)-3,5-dioxo-2,3,4,5-tetrahydro-1,2,4-triazine-6-carbonitrile]	0.532	0.125	4.25
N#Cc1nn(-c2cc(Cl)c(Oc3ccc4cc[nH]c4c3)c(Cl)c2)c(=O)[nH]c1=O [Compound I17, 2-(4-((1H-indol-6-yl)oxy)-3,5-dichlorophenyl)-3,5-dioxo-2,3,4,5-tetrahydro-1,2,4-triazine-6-arbonitrile]	1.02	0.135	7.50
CC1(C)C(=O)Nc2ccc(Oc3c(Cl)cc(-n4nc(C#N)c(=O)[nH]c4=O)cc3Cl)cc21 [Compound I19, 2-(3,5-dichloro-4-((3,3-dimethyl-2-oxoindolin-5-yl)oxy)phenyl)-3,5-dioxo-2,3,4,5-tetrahydr 0-1,2,4-triazine-6-carbonitrile]	0.024	0.006	3.83
N#Cc1nn(-c2cc(Cl)c(Oc3ccc4[nH]c(=O)oc4c3)c(Cl)c2)c(=O)[nH]c1=O [Compound I20, 2-(3,5-dichloro-4-((2-oxo-2,3-dihydrobenzo[d]oxazol-6-yl)oxy)phenyl)-3,5-dioxo-2,3,4,5-tetrahydro-1,2,4-triazine-6-carbonitrile]	8.37	2.09	4.01
CC(C)c1nc(Oc2c(Cl)cc(-n3nc(C#N)c(=O)[nH]c3=O)cc2Cl)c[nH]c1=O [Compound I27, 2-(3,5-dichloro-4-((6-isopropyl-5-oxo-4,5-dihydropyrazin-2-yl)oxy)phenyl)-3,5-dioxo-2,3,4,5-tetrahydro-1,2,4-triazine-6-carbonitrile]	6.41	2.26	2.83
CC(C)n1cc(Oc2c(Cl)cc(-n3nc(C#N)c(=O)[nH]c3=O)cc2Cl)c(=O)[nH]c1=O [Compound I28, 2-(3,5-dichloro-4-((1-isopropyl-2,4-dioxo-1,2,3,4-tetrahydropyrimidin-5-yl)oxy)phenyl)-3,5-dioxo-2,3,4,5-tetrahydro-1,2,4-triazine-6-carbonitrile]	> 100	> 10	
